Measured values as given in the NIST ThermoML archive (doi:10.1021/acs.jced.8b01159).
Where “and” joins values, the source holds several entries; their conditions need not be identical. Equal entries are not always repeated.

How the values were obtained:
[1] = molar heat capacity at constant pressure; settings: 100 kPa, Liquid, Extra sensitive DSC
[2] = Liquid, Closed cell (Static) method

CCN1CCOCC1 [4-ethylmorpholine]
Settings | molar heat capacity at constant pressure [J/K/mol] | vapor or sublimation pressure
[1], 270 K | 198.1 | –
[1], 275 K | 199.6 | –
[1], 280 K | 201.1 | –
[1], 285 K | 202.8 | –
[1], 290 K | 204.5 | –
[1], 295 K | 206.4 | –
[1], 300 K | 208.2 | –
[1], 305 K | 209.9 | –
[1], 310 K | 211.6 | –
[1], 315 K | 213.4 | –
[1], 320 K | 215.5 | –
[1], 325 K | 217.7 | –
[1], 330 K | 219.9 | –
[1], 335 K | 221.9 | –
[1], 340 K | 223.8 | –
[1], 345 K | 225.9 | –
[1], 350 K | 228 | –
[1], 355 K | 230.2 | –
[2], 243.11 K | – | 0.01727 kPa
[2], 243.12 K | – | 0.01728 kPa and 0.01725 kPa
[2], 248.15 K | – | 0.0276 kPa and 0.02761 kPa
[2], 253.15 K | – | 0.0431 kPa and 0.04308 kPa
[2], 253.16 K | – | 0.04305 kPa
[2], 258.15 K | – | 0.06592 kPa
[2], 258.16 K | – | 0.06592 kPa and 0.06589 kPa
[2], 263.16 K | – | 0.09902 kPa and 0.09898 kPa and 0.09893 kPa
[2], 268.16 K | – | 0.1459 kPa and 0.146 kPa
[2], 273.17 K | – | 0.2112 kPa and 0.2111 kPa
[2], 278.16 K | – | 0.3025 kPa
[2], 278.17 K | – | 0.3027 kPa and 0.3026 kPa
[2], 283.17 K | – | 0.4244 kPa and 0.4243 kPa
[2], 288.17 K | – | 0.5882 kPa and 0.5883 kPa and 0.5881 kPa
[2], 293.16 K | – | 0.8046 kPa and 0.8045 kPa
[2], 298.17 K | – | 1.086 kPa and 1.085 kPa
